Results from PMC6152009, “The Influence of Glycosylation of Natural and Synthetic Prenylated Flavonoids on Binding to Human Serum Albumin and Inhibition of Cyclooxygenases COX-1 and COX-2” (Molecules : A Journal of Synthetic Chemistry and Natural …, 2017).

Each molecule was assayed against T1, human serum albumin (HSA) (Homo sapiens, UniProt P02768) (assay: intrinsic fluorescence quenching, double-log plot). Conditions: 300 K, phosphate buffer pH 7.4, 15 µM HSA, <2% DMSO.
T1 construct: gene ALB; essentially fatty acid free HSA
Format: binding
Source text: intrinsic fluorescence quenching, double-log plot on human serum albumin (HSA)

T1 sequence (P02768 25-609): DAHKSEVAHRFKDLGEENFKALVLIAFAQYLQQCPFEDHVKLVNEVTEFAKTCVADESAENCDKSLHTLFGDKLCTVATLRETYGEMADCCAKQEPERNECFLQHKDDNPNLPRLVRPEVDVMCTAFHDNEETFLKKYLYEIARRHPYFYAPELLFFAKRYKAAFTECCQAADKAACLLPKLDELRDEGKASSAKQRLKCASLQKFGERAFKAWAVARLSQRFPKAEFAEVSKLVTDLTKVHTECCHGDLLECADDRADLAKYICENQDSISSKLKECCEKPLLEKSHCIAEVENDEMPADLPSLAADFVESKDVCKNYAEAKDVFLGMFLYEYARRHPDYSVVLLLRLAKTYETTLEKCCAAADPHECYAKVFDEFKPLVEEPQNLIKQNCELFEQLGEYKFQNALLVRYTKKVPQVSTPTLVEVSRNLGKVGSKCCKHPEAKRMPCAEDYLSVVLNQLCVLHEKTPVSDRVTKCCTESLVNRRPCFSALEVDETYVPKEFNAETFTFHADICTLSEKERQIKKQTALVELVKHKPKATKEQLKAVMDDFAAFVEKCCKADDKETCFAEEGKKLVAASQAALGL

Structure (SMILES)	Kb
COc1cc(O)c(CC=C(C)C)c2c1C(=O)/C(=C/c1ccc(O)cc1)O2 [compound 3, (Z)-6,4’-dihydroxy-4-methoxy-7-prenylaurone]	14250 M⁻¹
COc1cc(O[C@@H]2O[C@H](CO)[C@@H](O)[C@H](O)[C@H]2O)c(CC=C(C)C)c(O)c1C(=O)/C=C/c1ccc(O)cc1 [compound 4, Xanthohumol 4’-O-β-D-glucopyranoside]	32710 M⁻¹
COc1cc(O[C@@H]2O[C@H](CO)[C@@H](OC)[C@H](O)[C@H]2O)c(CC=C(C)C)c(O)c1C(=O)/C=C/c1ccc(O)cc1 [compound 5, Xanthohumol 4’-O-β-D-(4’’’-O-methyl)glucopyranoside]	4550 M⁻¹
COc1cc(O)c(CC=C(C)C)c(O)c1C(=O)/C=C/c1ccc(O)cc1 [compound 1, 3’-[3”,3”-dimethylallyl]-2’,4’,4-trihydroxy-6’-methoxychalcone]	86240 M⁻¹
COc1cc(O[C@@H]2O[C@H](CO)[C@@H](O)[C@H](O)[C@H]2O)c(CC=C(C)C)c(O)c1C(=O)CCc1ccc(O)cc1 [compound 6, α,β-Dihydroxanthohumol 4’-O-β-D-glucopyranoside]	4480 M⁻¹
COc1cc(O)c(CC=C(C)C)c(O)c1C(=O)CCc1ccc(O)cc1 [compound 2, α,β-dihydroxanthohumol]	36350 M⁻¹

Continued, values first:

Kb	Structure (SMILES)
9150 M⁻¹	COc1cc(O[C@@H]2O[C@H](CO)[C@@H](OC)[C@H](O)[C@H]2O)c(CC=C(C)C)c2c1C(=O)/C(=C/c1ccc(O)cc1)O2 [compound 9, (Z)-6,4’-Dihydroxy-4-methoxy-7-prenylaurone 6-O-β-D-(4’’’-O-methyl)glucopyranoside]
6110 M⁻¹	COc1cc(O[C@@H]2O[C@H](CO)[C@@H](OC)[C@H](O)[C@H]2O)c(CC=C(C)C)c(O)c1C(=O)CCc1ccc(O)cc1 [compound 7, α,β-Dihydroxanthohumol 4’-O-β-D-(4’’’-O-methyl)glucopyranoside]
4850 M⁻¹	COc1cc(O[C@@H]2O[C@H](CO)[C@@H](O)[C@H](O)[C@H]2O)c(CC=C(C)C)c2c1C(=O)/C(=C/c1ccc(O)cc1)O2 [compound 8, (Z)-6,4’-Dihydroxy-4-methoxy-7-prenylaurone 6-O-β-D-glucopyranoside]
